Experimental findings from patent publication US8404660B2, “Method of obtaining of 4-N-furfurylcytosine and/or its derivatives, an anti-aging composition and use of 4-N-furfurylcytosine and/or its derivatives in the manufacture of anti-aging composition” (Instytut Chemii Bioorganicznej Pan, priority 2007, dated 2013) are described below.

Data set [1] relates to fibroblast cells. As to the kind of experiment: cytotoxic effect of FC on fibroblast cell viability, long-term culture. As to conditions: 100 μM FC, vs untreated control. The format is cell-based. The protocol:
It was observed much less living cells and after 5 weeks they are clearly death (FIG. 2A).
(§1) HeLa and fibroblast cells are routinely maintained in this laboratory. Fibroblast cells were grown in Optimem medium supplemented with 10% fetal calf serum and antibiotics, HeLa cells were grown in RPMI 1640 supplemented with 10% fetal calf serum and antibiotics (penicillin 100 U/ml and streptomycin 100 ug/ml). All cell lines were incubated in a humidified atmosphere with 5% CO2 in air at 37° C.
There 1×10^6 cells on 6-well plates were used to study the cytotoxicity area of FC on cell growth in the presence or absence of FC.

Data set [2] in a line: solubility observed during purification. Format: physicochemical. As for the experimental part:
The second step was the reaction of furfurylamine (FIG. 1 V) with 4-N-p-toluenesulfonyl-2′-deoxycytidine (FIG. 1 I). The third step was depended on creating of 4-N-furfurylcytosine (FIG. 1 III), by cleavage of N-glycosyl bond by solution of inorganic acid in water (pH of this solution was about 3).
In this reason, purify on the column was performed in warm water (40-45° C.). The column was referred by aluminium foil, because the decrease temperature of water was carried out to precipitate of the product on the gel. The purification of the product was performed two times, because acid degradation of ribose gave a lot of byproducts, obstructed purification. The main product was eluted in 0.1% warm water solution of methanol. When the temperature of solvent was higher than 45° C., the product could elute earlier. The 4-N-furfurylcytosine was crystallized in water, gave colorless crystals, which form thin needles.

In data set [3] the test system is GAPDH. As to the kind of experiment: RT/PCR analysis of GAPDH gene expression in fibroblast cells. The format is cell-based. As to conditions: fibroblast cells cultured 5 weeks with 100 μM FC; phosphoimager analysis. As for the experimental part: To confirm this observation total RNA was isolated and RT/PCR was perform to analyzed total GAPDH gene expression as a result of condition of cells survival (FIG. 2B) The phosphoimager analysis was performed to determined differences in GAPDH expression in fibroblast cells. We observed that it is 72% lower in FC treated cells in comparison to the control (FIG. 2C).
(§2) Total RNA from cells was isolated using TRIZOL reagent (Invitrogen). Samples for analyses of gene expression were prepared from cultured Hela and fibroblast cells Aliquots (1×10^6 cells) were removed and homogenized in TRIZOL reagent (Invitrogen). Total RNA was then chloroform extracted and precipitated using iso-propanol and ethanol. Reverse transcription was carried out using: 2 μg RNA, random primer and RevertAid™ H Minus M-MuLV reverse transcriptase (Fermentas) according to the manufactures instructions. The resultant cDNA was amplified with primers complementary to the glyceraldehyde-3-phosphate dehydrogenase, GAPDH (G1: GGGTGGAGCCAAACGGGTC, G2: […]) PCR reaction was initiated with denaturation at 94° C. for 2 min, annealing at 55° C. for 1 min, extension at 72° C. for 30 sec, followed by 30 cycles. Equal volumes of amplified products were electrophoresed on 1 agarose gel and stained with ethidium bromide.
Differences in expression level were determined using Phosphoimager and ImageQant program.

In data set [4] the test system is GAPDH. Put plainly: RT-PCR analysis of GAPDH gene expression in HeLa cells (internal control). Format: cell-based. As to conditions: 100 μM FC, 24 hours, vs untreated control. The protocol:
In other test, we have analyzed influence of FC on the specific gene expression. In this case it was DNMT-1. Effect of FC on DNMT-1 expression was check in HeLa cells after 24 hours (FIG. 3A).
as §1
as §2, with “Equal volumes of amplified products were electrophoresed on 1 agarose gel and stained with ethidium bromide.” left out

Structures are written as SMILES. Entries after “also recorded” stand apart in the source; their conditions may differ.

As to `O=c1nc(NCc2ccco2)cc[nH]1` [FC, 4-N-furfurylcytosine], the fibroblast cell viability result in data set [1] (after 3 weeks of culture) is given as “decreases in cell viability”. For the same compound, the “fibroblast cell viability / cytotoxic effect” value in data set [1] (after 5 weeks of culture) is “clearly death; also recorded: cytotoxic effect”. The solubility in solvents entry in data set [2] (all solvents) is on record as “low solubility”. In addition, in data set [2] (water, increases with temperature), the solubility in water result is “best solubility”. In data set [3], the “GAPDH expression lower in FC treated cells in comparison to the control” value is 72%. Also, the GAPDH expression level entry in data set [4] was “stable and similar”.
